Experimental data reported in patent US11607417B2, “Uses of celastrol in preventing and/or treating cholestatic liver disease and liver fibrosis” (KUNMING INSTITUTE OF BOTANY, THE CHINESE ACADEMY OF SCIENCES, priority 2017, dated 2023).

Experiments:
[1] = system: ANIT-induced cholestatic liver injury in FXR knockout mice; test: Effect of FXR on celastrol activity in ANIT model (Example 5); format: in vivo, FXR knockout mice (C57BL/6J as background)
Source text: The same experimental method of Example 1 was used, wherein the experimental animals were FXR knockout mice (C57BL/6J as background), and the FXR knockout mice were presented by Frank J. Gonzalez, a researcher of the Cancer Institute of National Institutes of Health, USA.

[2] = system: TAA-induced liver fibrosis; test: TAA-induced liver fibrosis in mice (Example 7); format: in vivo, C57BL/6 mice; details: three times per week from second week, TAA 6 weeks
Description: A total of 30 male C57BL/6 mice were divided into three groups: blank group (n=10); TAA liver fibrosis group (n=10); treatment group (n=10).
Celastrol was dissolved in a solvent to obtain a celastrol solution at a concentration of 2 mg/mL, wherein the solvent consisted of 1% DMSO, 2% Tween 80, and 97% water (v:v:v); for intragastrical administration, the dosage of celastrol was 10 mg/kg/time, three times per week, and the administration was absent in the first week. TAA was dissolved in 0.9% NaCl solution to prepare a NaCl solution of TAA at a concentration of […], and the dosage for intraperitoneal administration was 100 mg/kg/time in the first week and 160 mg/kg/time in the second to sixth week, three times per week.
The model group and the treatment group were administrated with TAA three times per week, and administered every other day. The dosage of TAA was 100 mg/kg each time during the first week. From the second week onwards, the dosage of TAA administered to the model group and the treatment group was changed to 160 mg/kg each time. The blank group was given an equal dosage of NaCl solution.
The treatment group was administrated with celastrol from the second week, in which celastrol at a dosage of 10 mg/kg was administered 1 hour after administration with TAA. The blank group and the model group were administrated with an equal dosage of solvent (1% DMSO, 2% Tween 80, and 97% water (v: v: v)).
Six weeks later, mice were sacrificed by CO2 anesthesia, and mouse plasma samples and liver samples were collected. The eyeballs of the mice were taken for blood collection. The plasma samples were placed on ice for 1-2 hours, centrifuged at 4000 g for 5 minutes at 4° C., and the supernatants of plasma samples were taken to determine the plasma biochemical indicators, the levels of ALT, AST, and ALP.
Part of the collected mouse liver tissue was fixed overnight in formalin, and tissue sections were stained with hematoxylin and eosin (H&E).

[3] = system: ANIT-induced cholestatic liver injury under SIRT1 inhibition; test: Effect of SIRT1 inhibition (EX527) on celastrol activity in ANIT model (Example 3); format: in vivo, C57BL/6 mice
Description: A total of 24 male C57BL/6 mice were divided into four groups: blank group (n=6); model group (n=6); treatment group (n=6); and EX527 group (n=6).
Celastrol was dissolved in a solvent to obtain a celastrol solution at a concentration of 2 mg/mL, wherein the solvent consisted of 1% DMSO, 2% Tween 80, and 97% water (v:v:v). For intragastrical administration, the dosage of celastrol was 10 mg/kg·d. ANIT was dissolved in corn oil to obtain a corn oil solution of ANIT at a concentration of 15 mg/mL, and the dosage of ANIT for intragastrical administration was 75 mg/kg. EX527 was dissolved in corn oil to obtain a corn oil solution of EX527 at a concentration of 2 mg/mL, and the dosage of EX527 for intraperitoneal injection was 10 mg/kg·d.
The EX527 group was simultaneously administrated with the celastrol solution and the EX527 corn oil solution for 5 consecutive days. The treatment group was administrated with the celastrol solution and an equal dosage of corn oil for 5 consecutive days. At the same time, the blank group and the model group were administrated with equal dosages of solvent (1% DMSO, 2% Tween 80 and 97% water (v:v:v)) and corn oil, and the solvent was administrated for 5 consecutive days.
On the 3rd day of administration, ANIT model was established. 4 Hours after administration, the mice in the model group, the treatment group and the EX527 group were respectively intraperitoneally injected with the ANIT corn oil solution at a dosage of 75 mg/kg for single administration to induce cholestatic liver injury, and the blank group was fed with an equal dosage of corn oil. After the model was established on the 3rd day of administration, the treatment group was continuously administrated with celastrol, the EX527 group was continuously administrated with celastrol and EX527, and the blank group and the model group were continuously administrated with the same dosage of solvent. 48 Hours after administration with ANIT, the mice were sacrificed by CO2 anesthesia, and mouse liver samples and plasma samples were taken. The eyeballs of the mice were taken for blood collection. The plasma samples were placed on ice for 1-2 hours, centrifuged at 4000 g for 5 minutes at 4° C., and the supernatants of the plasma samples were taken to determine plasma biochemical indicators, the levels of ALT, AST and ALP.
At the same time, plasma samples were prepared: 10 μL of plasma sample was taken, mixed well with 190 μL of 67% acetonitrile (containing 5 μM internal standard chlorpropamide), centrifuged at 18000 g for 20 minutes at 4° C., and the supernatant was taken for sample injection. The liquid chromatography conditions were as follows: the injection volume was 5 μL; the temperature of column was 45° C.; the flow rate of mobile phase was 0.3 mL/min; the gradient elution was that acetonitrile concentration changed from 2% to 98% during 16 minutes of operation, wherein the mobile phase (water/acetonitrile solution) contained 0.01% formic acid. The elution procedure was as follows: during 0-12th minute, the acetonitrile concentration changed from 2% to 98% at a constant rate; during 12-14th minute, the acetonitrile concentration was maintained at 98%; during 14-14.1th minute, the acetonitrile concentration changed from 98% to 2%; during 14.1-16th minute, the acetonitrile concentration was maintained at 2%. Mass spectrometry conditions were as follows: the temperature of dry gas was 350° C., the pressure of nebulizer was 35 psi, and the voltage of capillary was 3.5 kV.
Part of the collected mouse liver tissue was fixed overnight in formalin and tissue sections were stained with hematoxylin and eosin (H&E).

[4] = system: TAA-induced cholestatic liver injury in FXR knockout mice; test: Effect of FXR on celastrol activity in TAA model (Example 6); format: in vivo, FXR knockout mice (C57BL/6J as background)
Source text: The same experimental method of Example 2 was used, wherein the experimental animals were FXR knockout mice (C57BL/6J as background), and the FXR knockout mice were presented by Frank J. Gonzalez, a researcher of the Cancer Institute of National Institutes of Health, USA.

[5] = method of Example 1, ANIT model, FIG. 5A
[6] = celastrol 10 mg/kg/time, P<0.05, FIG. 7D
[7] = treatment group: celastrol 10 mg/kg·d, P<0.05, FIG. 3E

CC1=C(O)C(=O)C=C2C1=CC=C1[C@@]2(C)CC[C@@]2(C)[C@@H]3C[C@](C)(C(=O)O)CC[C@]3(C)CC[C@]12C [celastrol, Celastrol]
Levels of bile acids in plasma vs ANIT model group ([1]; CA, DCA, TβMCA/TαMCA, TCA, THDCA/TUDCA, method of Example 1, FIG. 5B): no significant decrease
ALP level in plasma vs model group [1, 5]: no significant decrease
ALT level in plasma vs model group [1, 5]: no significant decrease
H&E staining: liver tissue damage and liver morphology ([2]; celastrol 10 mg/kg/time intragastric, n=10, FIG. 7C): reduced and the liver morphology was also significantly recovered
ALT level in plasma vs model group [2, 6]: significantly lower
AST level in plasma vs model group [2, 6]: significantly lower
Levels of bile acids in plasma vs model group ([3]; CA, DCA, TβMCA/TαMCA, TCA, THDCA/TUDCA, treatment group: celastrol 10 mg/kg·d, FIG. 3F): significantly lower
H&E staining of mouse liver tissue ([3]; treatment group: celastrol 10 mg/kg·d intragastric + corn oil, FIG. 3C): no obvious damage
ALP level in plasma vs model group [3, 7]: lower
ALT level in plasma vs model group [3, 7]: lower
AST level in plasma vs model group [3, 7]: lower
Levels of bile acids in plasma vs model group ([4]; co-MCA, DCA, TCA, THDCA/TUDCA, TCDCA, method of Example 2, FIG. 6E): no significant decrease
H&E staining of liver tissue ([4]; method of Example 2, TAA model, FIG. 6C): a severe necrosis of liver cells also occurred
AST level in plasma vs model group ([4]; method of Example 2, TAA model, FIG. 6D): no significant decrease
